Laboratory results taken from ChEMBL document CHEMBL1201862, “PubChem BioAssay data set” (2004).
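Results reflect a 48-hour exposure of cells in 96-well plates to compound at five concentrations. Abbreviation: GI50, concentration required for 50% inhibition of growth.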 The source made the active and inactive calls. Rule as the data show it: active = GI50 up to about 1.1 µM and inactive = higher.

What was measured:
Test in all cases: growth of human tumour cells (NCI), 48 h
DLD-1 = system: DLD-1
DMS-114 = system: DMS-114
DMS-273 = system: DMS-273
LXFL 529 = system: LXFL 529
SNB-78 = system: SNB-78
XF498 = system: XF498
HOP-18 = system: HOP-18
RXF 631 = system: RXF 631
KM-20L2 = system: KM-20L2

Row | Structure (SMILES) | GI50 (DLD-1) | GI50 (DMS-114) | GI50 (DMS-273) | GI50 (LXFL 529) | GI50 (SNB-78) | GI50 (XF498) | GI50 (HOP-18) | GI50 (RXF 631) | GI50 (KM-20L2)
1 | CCCN1C(=O)C/C(=C\C(C)=O)Nc2ccccc21 | > 100 µM (inactive) | 71.4 µM (inactive) | > 100 µM (inactive) | > 100 µM (inactive) | 80.2 µM (inactive) | > 100 µM (inactive) |  |  | 
2 | Cc1ccc(S(=O)(=O)SC(C)(C)C)cc1 | 18.5 µM (inactive) | 16.9 µM (inactive) | 19.8 µM (inactive) | 32.7 µM (inactive) | 51.2 µM (inactive) | 15.6 µM (inactive) | > 100 µM (inactive) | > 100 µM (inactive) | 
3 | O=c1cc2ccccc2nn1-c1ccccc1Cl | > 100 µM (inactive) | 48.3 µM (inactive) | 78.5 µM (inactive) |  | > 100 µM (inactive) | 27 µM (inactive) | > 100 µM (inactive) |  | > 100 µM (inactive)
4 | O=c1cccccc1NCCCCCCCCNc1cccccc1=O | > 100 µM (inactive) | 1.77 µM (inactive) | 55.7 µM (inactive) | 47.9 µM (inactive) | > 100 µM (inactive) | 23 µM (inactive) |  | 1.74 µM (inactive) | > 100 µM (inactive)
5 | N=S(=O)(c1ccccc1)c1ccccc1[N+](=O)[O-] (stereo not drawn) | > 100 µM (inactive) |  | > 100 µM (inactive) | > 100 µM (inactive) | > 100 µM (inactive) | > 100 µM (inactive) | > 100 µM (inactive) | > 100 µM (inactive) | > 100 µM (inactive)
6 | CN(C)CCCNc1ccnc2c([N+](=O)[O-])cccc12 |  | 2.48 µM (inactive) | 14.7 µM (inactive) |  | 31.2 µM (inactive) | 14.8 µM (inactive) |  |  | 4.36 µM (inactive)
7 | O=S(=O)(c1ccccc1)n1cnc(CCc2ccccc2)n1 | > 100 µM (inactive) | > 100 µM (inactive) | > 100 µM (inactive) | > 100 µM (inactive) | > 100 µM (inactive) |  | > 100 µM (inactive) |  | > 100 µM (inactive)
8 | COc1ccccc1/C=C(\C#N)c1ccccc1 | 28.1 µM (inactive) | 16.5 µM (inactive) | 16.8 µM (inactive) | 36.1 µM (inactive) | 31.2 µM (inactive) |  | 38.5 µM (inactive) |  | 23.6 µM (inactive)
9 | CC(C)n1c2c([n+](C)c1/C=C/c1ccccc1)C(=O)c1ccccc1C2=O | 0.426 µM (active) | < 0.0148 µM (active) | 0.0348 µM (active) | 0.0861 µM (active) | 0.0389 µM (active) |  |  |  | 0.0955 µM (active)
10 | N=C(N)NS(=O)(=O)c1ccc(Nc2c3ccccc3nc3c(C(=O)Nc4ccc(S(N)(=O)=O)cc4)cccc23)cc1 | > 100 µM (inactive) | 45 µM (inactive) | > 100 µM (inactive) | 26.8 µM (inactive) | 76.4 µM (inactive) | 25.3 µM (inactive) | > 100 µM (inactive) |  | > 100 µM (inactive)
11 | O=C(c1ccccc1)c1c(-c2ccccc2)sc2nc3ccccc3nc12 |  | > 100 µM (inactive) | > 100 µM (inactive) |  | 74 µM (inactive) | > 100 µM (inactive) |  |  | > 100 µM (inactive)
12 | COC1=CC(=O)c2c(cc3c(c2O)-c2c(OC)cc4cc5c(c(O)c4c2OC(=O)CC(C)(O)C3)C(=O)CC(C)(O)C5)C1=O (stereo not drawn) | 2.63 µM (inactive) | 1.69 µM (inactive) | 1.64 µM (inactive) | 1.16 µM (inactive) | 1.85 µM (inactive) | 1.37 µM (inactive) | 1.3 µM (inactive) |  | 1.63 µM (inactive)
13 | Cc1cc(=O)cc2sc3cc(Cl)ccc3nc1-2 | 6.49 µM (inactive) |  | 6.17 µM (inactive) | 15.2 µM (inactive) | 17 µM (inactive) | 4.28 µM (inactive) | 48.1 µM (inactive) |  | 17.4 µM (inactive)
14 | Cc1ccc(C(=O)/C=C/c2cccc([N+](=O)[O-])c2)cc1 | 44 µM (inactive) | 46.5 µM (inactive) | > 83.4 µM (inactive) | 37.8 µM (inactive) | > 100 µM (inactive) |  | > 100 µM (inactive) | > 73.8 µM (inactive) | 36.6 µM (inactive)
15 | C#Cc1cccc(N2C(=O)c3c(c(-c4ccccc4)c(-c4ccc(Cc5ccc(-c6c(-c7ccccc7)c7c(c(-c8ccccc8)c6-c6ccccc6)C(=O)N(c6cccc(C#C)c6)C7=O)cc5)cc4)c(-c4ccccc4)c3-c3ccccc3)C2=O)c1 | 32.9 µM (inactive) | 20.5 µM (inactive) | 52.2 µM (inactive) | 14.9 µM (inactive) | 47.4 µM (inactive) | 22.8 µM (inactive) |  |  | 16.2 µM (inactive)
16 | Cc1cc([N+](=O)[O-])ccc1Nc1cccc(Cl)c1C | 14.6 µM (inactive) | 13.5 µM (inactive) | 14.6 µM (inactive) | 14.4 µM (inactive) |  |  | 14 µM (inactive) | 16.2 µM (inactive) | 14 µM (inactive)
17 | CCOC(=O)C(=Cc1cccnc1C)C(=O)OCC | 9.27 µM (inactive) | 13.7 µM (inactive) | 3.82 µM (inactive) | 7.57 µM (inactive) |  | 12.6 µM (inactive) | 9.68 µM (inactive) | 11.9 µM (inactive) | 3.6 µM (inactive)
18 | O=C(OC1CCC2OOC1O2)c1ccc([N+](=O)[O-])cc1 (stereo not drawn) |  | > 100 µM (inactive) | > 100 µM (inactive) |  | > 100 µM (inactive) |  |  |  | > 100 µM (inactive)
19 | COC(=O)C(=O)C(C#N)c1c(Cl)cccc1Cl (stereo not drawn) | > 100 µM (inactive) | > 100 µM (inactive) | > 100 µM (inactive) | > 100 µM (inactive) | > 100 µM (inactive) | > 100 µM (inactive) |  | > 100 µM (inactive) | > 100 µM (inactive)
20 | C[n+]1c2ccccc2c(/C=N\NS(=O)(=O)c2ccc(O)c(C(=O)O)c2)c2ccccc21 | 58.7 µM (inactive) | 34 µM (inactive) | 35.6 µM (inactive) |  | > 100 µM (inactive) | 14.9 µM (inactive) |  | 31.6 µM (inactive) | 53.6 µM (inactive)
21 | O=C(CC1(O)C(=O)Nc2c(Cl)cc(Cl)cc21)c1ccc([N+](=O)[O-])cc1 (stereo not drawn) | > 43.4 µM (inactive) | 23.8 µM (inactive) | > 62.4 µM (inactive) | 25.6 µM (inactive) | > 47.8 µM (inactive) | 56.5 µM (inactive) | > 100 µM (inactive) |  | > 78 µM (inactive)
22 | CCC(/C=C/c1ccccc1)=N\N=C(\C=C\c1ccccc1)CC | > 100 µM (inactive) |  | > 100 µM (inactive) | > 100 µM (inactive) | > 100 µM (inactive) | > 100 µM (inactive) |  |  | > 100 µM (inactive)
23 | O=C1C2Cc3ccccc3CN2C(=O)N1CCN1CCOCC1 (stereo not drawn) | > 100 µM (inactive) | > 100 µM (inactive) | > 100 µM (inactive) | > 100 µM (inactive) |  |  |  | > 100 µM (inactive) | > 100 µM (inactive)
24 | CN(C)CCCCC1CCN(CC(=O)N2c3ccccc3NC(=O)c3ccccc32)CC1 | > 100 µM (inactive) | > 100 µM (inactive) | > 100 µM (inactive) | > 100 µM (inactive) | > 100 µM (inactive) | > 100 µM (inactive) |  | > 100 µM (inactive) | 
25 | CNC(=O)ON(C(C)=O)C(=O)NC [CARACEMIDE] | 95.1 µM (inactive) | 31.1 µM (inactive) | 75.2 µM (inactive) |  | 133 µM (inactive) | 41.3 µM (inactive) | 97.7 µM (inactive) |  | 104 µM (inactive)
